In PubChem BioAssay AID2060893 (Molecular Pharmacology Branch, DTP, NCI, 2025):

System: K86415-001-R-J1-PDC complex spheroids, viability
Assay: Anticancer human tumor K86415-001-R-J1-PDC patient-derived lung adenocarcinoma cell line growth inhibition [RAS]
Conditions: for IC50: curve of first compound; for viability, T/C: stronger effect = lower value
Outline: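 Tumour cells grown as complex spheroids with HUVEC endothelial cells and mesenchymal stem cells, treated with RAS pathway inhibitor combinations. Each agent spans half-log steps from near clinical Cmax, or 10 microM where Cmax is unknown.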
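Also: spheroids exposed to agents for seven days before readout.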

`C=CC(=O)N1CCN(c2nc(OCC3CCCN3C)nc3c(F)c(-c4nc(N)cc(C)c4C(F)(F)F)c(Cl)cc23)C(C)C1` (configuration not stated) + C#Cc1c(F)ccc2cc(O)cc(-c3ncc4c(N5CC6CCC(C5)N6)nc(OCC56CCCN5CC(F)C6)nc4c3F)c12 was tested, and the IC50 (second compound 0.0316 µM) was < 3.16 nM, the IC50 (second compound 0.1 µM) was < 3.16 nM and the IC50 (second compound 0.316 µM) was < 3.16 nM. For the same molecule, the IC50 (second compound 1 µM) was < 3.16 nM, the IC50 (second compound 3.16 µM) was < 3.16 nM and the IC50 (second compound 10 µM) was < 3.16 nM. It also gave a viability, T/C (second compound 0.0316 µM, first compound 0.00316 µM) of 18.2%, a viability, T/C (second compound 0.0316 µM, first compound 0.01 µM) of 12.5% and a viability, T/C (second compound 0.0316 µM, first compound 0.0316 µM) of 11.4%. It also gave a viability, T/C (second compound 0.0316 µM, first compound 0.1 µM) of 11.2%, a viability, T/C (second compound 0.0316 µM, first compound 0.316 µM) of 8.99% and a viability, T/C (second compound 0.0316 µM, first compound 1 µM) of 12%. It also gave a viability, T/C (second compound 0.1 µM, first compound 0.00316 µM) of 19.5%, a viability, T/C (second compound 0.1 µM, first compound 0.01 µM) of 12.3% and a viability, T/C (second compound 0.1 µM, first compound 0.0316 µM) of 11.3%. It also gave a viability, T/C (second compound 0.1 µM, first compound 0.1 µM) of 10.5%, a viability, T/C (second compound 0.1 µM, first compound 0.316 µM) of 7.88% and a viability, T/C (second compound 0.1 µM, first compound 1 µM) of 11%. For the same molecule, the viability, T/C (second compound 0.316 µM, first compound 0.00316 µM) was 19.9%, the viability, T/C (second compound 0.316 µM, first compound 0.01 µM) was 11.8% and the viability, T/C (second compound 0.316 µM, first compound 0.0316 µM) was 8.76%. The viability, T/C (second compound 0.316 µM, first compound 0.1 µM) was 12.1%, the viability, T/C (second compound 0.316 µM, first compound 0.316 µM) was 9.15% and the viability, T/C (second compound 0.316 µM, first compound 1 µM) was 9.63%. For the same molecule, the viability, T/C (second compound 1 µM, first compound 0.00316 µM) was 18.6%, the viability, T/C (second compound 1 µM, first compound 0.01 µM) was 13.6% and the viability, T/C (second compound 1 µM, first compound 0.0316 µM) was 13.2%. The viability, T/C (second compound 1 µM, first compound 0.1 µM) was 8.99%, the viability, T/C (second compound 1 µM, first compound 0.316 µM) was 10.1% and the viability, T/C (second compound 1 µM, first compound 1 µM) was 10.7%. The viability, T/C (second compound 3.16 µM, first compound 0.00316 µM) was 19.5%, the viability, T/C (second compound 3.16 µM, first compound 0.01 µM) was 13.4% and the viability, T/C (second compound 3.16 µM, first compound 0.0316 µM) was 9.24%. The viability, T/C (second compound 3.16 µM, first compound 0.1 µM) was 9.62%, the viability, T/C (second compound 3.16 µM, first compound 0.316 µM) was 9.96% and the viability, T/C (second compound 3.16 µM, first compound 1 µM) was 9.83%. The viability, T/C (second compound 10 µM, first compound 0.00316 µM) was 11.9%, the viability, T/C (second compound 10 µM, first compound 0.01 µM) was 12.9% and the viability, T/C (second compound 10 µM, first compound 0.0316 µM) was 10.9%. It also gave a viability, T/C (second compound 10 µM, first compound 0.1 µM) of 9.94%, a viability, T/C (second compound 10 µM, first compound 0.316 µM) of 10.1% and a viability, T/C (second compound 10 µM, first compound 1 µM) of 9.54%.
